Read-outs that look alike come from different tables or passages of the source.
Legend:
human CB1 receptor [1] = target: T1, human CB1 receptor (Homo sapiens, UniProt P21554); assay: [35S] GTPγS binding on membranes of CHO cells expressing the human CB1 receptor (agonism); assay type: biochemical; set-up: expressed in transfected cells; membrane preparation
Method in brief: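 Membranes from human CB1-expressing CHO cells (5 μg/well) incubated with test compound and [35S]GTPγS in 50 mM Tris pH 7.4, 100 mM NaCl, 3 mM MgCl2, 0.2 mM EGTA, 0.04% BSA for 45 min at 37 °C. Bound label collected by filtration, scintillation counted; EC50 from curve fits.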

human CB1 receptor [2] = target: T1, human CB1 receptor; assay: Human CB1 receptor binding, [3H] CP-55,940 displacement on HEK cell membranes; set-up: expressed in transfected cells; host or cells: HEK cells, doxycycline-induced; membrane preparation
Method in brief: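 Radioligand displacement: [3H] CP-55,940 at […] final, 1 μg membrane protein per well from HEK cells with tetracycline-inducible human CB1, 60 min at room temperature, pH 7.4 Tris/NaCl/MgCl2/EGTA/BSA buffer. 50 μM WIN-55,212-2 set nonspecific binding; bound label filtered, counted, and fitted for EC50 and Ki values.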

[3] = GTPγS EC50, human CB1, CHO cell membranes
[4] = human CB1, CHO cell membranes, read-out: GTPγS EC50

T1 sequence (P21554 whole entry): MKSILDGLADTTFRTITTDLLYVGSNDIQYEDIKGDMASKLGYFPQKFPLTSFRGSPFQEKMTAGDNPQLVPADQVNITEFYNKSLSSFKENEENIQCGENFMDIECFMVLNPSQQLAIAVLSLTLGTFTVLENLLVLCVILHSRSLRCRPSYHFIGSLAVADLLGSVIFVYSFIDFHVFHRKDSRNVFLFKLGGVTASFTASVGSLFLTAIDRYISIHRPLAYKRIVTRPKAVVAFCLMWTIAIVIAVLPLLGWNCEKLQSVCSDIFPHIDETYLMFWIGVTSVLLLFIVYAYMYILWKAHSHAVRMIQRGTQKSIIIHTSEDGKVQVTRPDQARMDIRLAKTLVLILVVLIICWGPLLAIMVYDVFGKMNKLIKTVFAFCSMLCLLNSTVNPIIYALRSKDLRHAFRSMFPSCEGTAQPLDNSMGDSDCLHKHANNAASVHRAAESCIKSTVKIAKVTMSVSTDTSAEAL

SMILES | EC50 (human CB1 receptor [1]; [3]) [nM] | Ki (human CB1 receptor [2]; CB1 Ki) [nM] | EC50 (human CB1 receptor [1]; [4]) [nM] | Ki (human CB1 receptor [2]; read-out: CB1 Ki) [nM]
CC(C)(C)[C@H](NC(=O)c1nn(Cc2ccc(F)cc2)c2ccccc12)C(=O)N1CCOCC1 [Example 242] | 3.37 | 0.36 | – | –
CC(C)(C)[C@H](NC(=O)c1nn(Cc2ccc(C#N)cc2)c2ccccc12)C(=O)N1CCOCC1 [Example 243] | 91.3 | 11.3 | – | –
CC(C)(C)[C@H](NC(=O)c1nn(Cc2ccc(F)cc2)c2ccccc12)C(=O)N1CCN(S(C)(=O)=O)CC1 [Example 244] | – | – | 16.2 | 2.42
CC(C)(C)[C@H](NC(=O)c1nn(Cc2ccc(F)cc2)c2ccccc12)C(=O)N1CCN(S(=O)(=O)C2CC2)CC1 [Example 245] | – | – | 12.4 | 2.61
CC(C)(C)[C@H](NC(=O)c1nn(Cc2ccc(F)cc2)c2ccccc12)C(=O)N[C@H](CO)C(N)=O [Example 246] | 69 | 6.58 | – | –
CC(C)(C)[C@H](NC(=O)c1nn(Cc2ccc(F)cc2)c2ccccc12)C(=O)N1C[C@@H](O)[C@H](O)C1 [Example 247] | 0.95 | 0.65 | – | –
CC(C)(C)[C@H](NC(=O)c1nn(Cc2ccc(F)cc2)c2ccccc12)C(=O)N1CCOC(CO)C1 (stereo partly drawn) [Example 249] | 16.3 | 2.51 | – | –
CC(C)(C)[C@H](NC(=O)c1nn(Cc2ccc(F)cc2)c2ccccc12)C(=O)NC[C@H]1CCCC[C@H]1O [Example 250] | – | – | 18.1 | 3.72
CC(C)(C)[C@H](NC(=O)c1nn(Cc2ccc(F)cc2)c2ccccc12)C(=O)N1CCCC(O)C1 (stereo partly drawn) [Example 251] | 2.33 | 0.51 | – | –
CC(C)(C)[C@H](NC(=O)c1nn(Cc2ccc(F)cc2)c2ccccc12)C(=O)NC[C@H]1CCCC[C@@H]1O [Example 253] | – | – | 26 | 4.5
CC(C)(C)[C@H](NC(=O)c1nn(Cc2ccc(C(F)(F)F)cc2)c2ccccc12)C(N)=O [Example 254] | 153 | 12.3 | – | –
CC(C)(C)[C@H](NC(=O)c1nn(Cc2ccc(C(F)(F)F)cc2)c2ccccc12)C(=O)NCCO [Example 255] | 130 | 13.1 | – | –
CC(C)(C)[C@H](NC(=O)c1nn(Cc2ccc(F)cc2)c2ccccc12)C(=O)N1CCN(CC(N)=O)CC1 [Example 262] | – | – | 38.9 | 8.25
CC(C)(C)[C@H](NC(=O)c1nn(Cc2ccccc2)c2ccccc12)C(=O)NCCNS(=O)(=O)c1ccc(C#N)cc1 [Example 263] | – | – | 100 | 8.36
CC(C)(C)[C@H](NC(=O)c1nn(Cc2ccc(C#N)cc2)c2ccccc12)C(=O)NCCNS(=O)(=O)c1ccc(C#N)cc1 [Example 264] | – | – | 103 | 6.75
CC(C)(C)[C@H](NC(=O)c1nn(Cc2ccc(C#N)cc2F)c2ccccc12)C(=O)NCCNS(=O)(=O)c1ccc(C#N)cc1 [Example 265] | – | – | 82 | 13.1
CC(C)(C)[C@H](NC(=O)c1nn(Cc2ccc(F)cc2)c2ccccc12)C(=O)NCCNS(=O)(=O)c1ccc(C#N)cc1 [Example 266] | – | – | 4.34 | 0.94
CC(C)(C)[C@H](NC(=O)c1nn(Cc2ccc(F)cc2)c2ccccc12)C(=O)NCC#N [Example 270] | 2.62 | 0.76 | – | –
CC(C)(C)[C@H](NC(=O)c1nn(Cc2ccc(F)cc2)c2ccccc12)C(=O)NCCC#N [Example 271] | 24.9 | 2.91 | – | –
CC(C)(C)[C@H](NC(=O)c1nn(Cc2ccc(F)cc2)c2ccccc12)C(=O)NC1CCOC1 (stereo partly drawn) [Example 281] | 37.4 | 4.83 | – | –
CC(C)(C)[C@H](NC(=O)c1nn(Cc2ccc(F)cc2)c2c(F)c(F)ccc12)C(N)=O [Example 282] | 0.78 | 0.17 | – | –

SMILES | EC50 (human CB1 receptor [1]; [3]) [nM] | Ki (human CB1 receptor [2]; CB1 Ki) [nM] | EC50 (human CB1 receptor [1]; [4]) [nM] | Ki (human CB1 receptor [2]; read-out: CB1 Ki) [nM]
CC(C)(C)[C@H](NC(=O)c1nn(Cc2ccc(F)cc2)c2ccccc12)C(=O)N1C[C@@H](O)[C@@H](O)C1 [Example 284] | 12.3 | 1.03 | – | –
CC(C)(C)[C@H](NC(=O)c1nn(Cc2ccc(C#N)cc2)c2c(F)cccc12)C(=O)N[C@@H]1CCc2ccccc21 [Example 286] | – | – | 36.1 | 5.74
CC(C)(C)[C@H](NC(=O)c1nn(Cc2ccc(F)cc2)c2ccccc12)C(=O)N[C@H]1CC[C@@H](O)C1 [Example 288] | 9.53 | 1.18 | – | –
CC(C)(C)[C@H](NC(=O)c1nn(Cc2ccc(F)cc2)c2ccccc12)C(=O)N[C@@H]1CC[C@@H](O)C1 [Example 289] | 35.8 | 5.13 | – | –
CC(C)(C)[C@H](NC(=O)c1nn(Cc2ccc(F)cc2)c2ccccc12)C(=O)N1CCC[C@H]1C(N)=O [Example 292] | 19 | 5.25 | – | –
CC(C)(C)[C@H](NC(=O)c1nn(Cc2ccc(C#N)cc2)c2cc(F)ccc12)C(=O)NCCO [Example 295] | 64.3 | 9.17 | – | –
CC(C)(C)[C@H](NC(=O)c1nn(Cc2ccc(C#N)cc2)c2cc(F)ccc12)C(=O)NC1CC1 [Example 299] | 23.8 | 8.56 | – | –
CC(C)(C)[C@H](NC(=O)c1nn(Cc2ccc(C#N)cc2)c2cc(F)ccc12)C(N)=O [Example 300] | 121 | 5.85 | – | –
CC(C)NC(=O)OC1CCN(C(=O)[C@@H](NC(=O)c2nn(Cc3ccc(F)cc3)c3ccccc23)C(C)(C)C)CC1 [Example 302] | – | – | 33.1 | 5.41
CCNC(=O)OC1CCN(C(=O)[C@@H](NC(=O)c2nn(Cc3ccc(F)cc3)c3ccccc23)C(C)(C)C)CC1 [Example 303] | – | – | 11 | 2.27
CC(C)(C)[C@H](NC(=O)c1nn(Cc2ccc(F)cc2)c2ccccc12)C(=O)NCC1=NCCN1 [Example 305] | 86.4 | 18 | – | –
CC(C)(C)[C@H](NC(=O)c1nn(Cc2ccc(F)cc2)c2ccccc12)C(=O)N1CCC[C@H]1CO [Example 306] | 1.39 | 0.78 | – | –
CC(C)(C)[C@H](NC(=O)c1nn(Cc2ccc(F)cc2)c2ccccc12)C(=O)N1CCC[C@@H]1CO [Example 307] | 1.56 | 1.27 | – | –
CC(C)(C)[C@H](NC(=O)c1nn(Cc2ccc(C#N)cc2)c2ccccc12)C(=O)NCC(F)(F)F [Example 308] | 5.55 | 2.63 | – | –
CC(C)(C)[C@H](NC(=O)c1nn(Cc2ccc(C#N)cc2)c2c(F)cccc12)C(=O)NCC(F)(F)F [Example 309] | 2.59 | 1.59 | – | –
CC(C)(C)[C@H](NC(=O)c1nn(Cc2ccc(C#N)cc2)c2cc(F)ccc12)C(=O)NCC(F)(F)F [Example 310] | 2.1 | 1.48 | – | –
CC(C)(C)[C@H](NC(=O)c1nn(Cc2ccc(F)cc2)c2ccccc12)C(=O)NCC1CNC(=O)O1 (stereo partly drawn) [Example 315] | 8.67 | 2.91 | – | –
CC(=O)N1CCC(NC(=O)[C@@H](NC(=O)c2nn(Cc3ccc(F)cc3)c3ccccc23)C(C)(C)C)C1 (stereo partly drawn) [Example 320] | – | – | 63.2 | 12
CC(C)(C)[C@H](NC(=O)c1nn(Cc2ccc(F)cc2)c2c(F)c(F)ccc12)C(=O)NCC(N)=O [Example 321] | 16.6 | 1.58 | – | –
CC(C)(C)[C@H](NC(=O)c1nn(Cc2ccc(F)cc2)c2c(F)c(F)ccc12)C(=O)NC[C@@H](O)CO [Example 322] | 109 | 8.89 | – | –
CC(C)(C)[C@H](NC(=O)c1nn(Cc2ccc(F)cc2)c2c(F)c(F)ccc12)C(=O)NC[C@H](O)CO [Example 323] | 22.5 | 2.99 | – | –
